Inconclusive results are not listed. Activity calls are given as the source filed them.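 The calls were made as follows: active = fitted IC50 within a set limit above the top dose, meaning light loss from cell killing; inconclusive = flat curve with 30 to 70% effect, or poor fit; inactive = IC50 beyond that set limit.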
system: NIH3T3 viability, ATP luminescence (CellTiter-Glo), 90 h; assay: NIH3T3 cell viability loss – ATP luminescence, mouse fibroblasts, counter-screen, dose response (AID 2010)

Which IC50 does the source give for `O=[N+]([O-])C(/C=C(/Cl)[N+](=O)[O-])=C(N1CCCCC1)N1CCCCC1` here?
The IC50 was > 6 µM (inactive).

How did the IC50 turn out when `Cc1ccccc1OCc1n(CC(=O)OC2CC(C)CCC2C(C)C)c2ccccc2[n+]1C` (stereo not given) was run?
The IC50 was > 6 µM (inactive).

With `CC(C)N1C(=O)/C(=C\c2nc3ccccc3c(=O)n2-c2ccccc2)c2ccccc21` as the molecule, how does the IC50 read?
Its IC50 is > 6 µM (inactive).

Which IC50 does the source give for `O=[N+]([O-])C(/C=C(\Cl)[N+](=O)[O-])=C(N1CCCCC1)N1CCCCC1` here?
The IC50 was > 6 µM (inactive).

For `C#CCOCCOCCOCCNc1nc(N2CCN(C(=O)CCCCCCCCCCNC(=O)Cn3cc(C[C@@H](C)O)nn3)CC2)nc(N2CCN(C(=O)CCCCCCCCCCNC(=O)[C@H](CCCN=C(N)N)n3cc(C[C@@H](C)CC)nn3)CC2)n1`, which IC50 is on record?
Its IC50 is > 6 µM (inactive).
